Source: patent publication US11331375B2, “Compositions and methods for regulating leukocyte adhesion” (University of Virginia Patent Foundation, priority 2015, dated 2022)

Key:
Panx1 channels in HUVEC = target: T1, Panx1 channels in HUVEC (Homo sapiens, UniProt Q96RD7); experiment: YO-PRO-1 dye uptake assay; format: cell-based; conditions: TNFα 30 minutes, dose dependent
T1 construct: Primary human umbilical vein endothelial cells (HUVEC) were purchased from Cell Applications; PromoCell 200K-05; C-12231; host or cells: HUVEC, HSaVEC (primary human venous endothelial cells)
Procedure: HUVECs were cultured on poly-L-lysine coated coverslips and grown to confluence in EGM. Cells were washed three times with 1× PBS and incubated in fresh EGM for 30 minutes prior to stimulation. To stimulate YO-PRO-1 dye uptake, YO-PRO-1 (1 μM) was added to the media and EC monolayers were treated with TNFα at a range of concentrations (0.1 ng/mL-100 ng/mL) for 30 minutes. At the end of the stimulation, cells were washed 3× with 1× PBS and immediately fixed in 4% PFA. Coverslips were then mounted on microscope slides with DAPI ProlongGold mounting agent and visualized on an Olympus IX81 laser scanning confocal microscope. Dye uptake was quantified as the intensity of YO-PRO-1 fluorescence over time using ImageJ software. For time course analysis, YO-PRO-1 was added to the culture media at various time points after TNFα stimulation and incubated to the 30-minute time point. Data are expressed as mean±SEM (n=3 independent experiments).

HAoEC = experiment: In vitro ATP release assay, HAoEC; format: cell-based, human
Procedure: (§1) In vitro Human arterial and venous ECs were seeded in 24-well plates pre-coated with 0.2% gelatin and grown to confluency. On the day of experiment, the media was removed from each well and cells were carefully washed twice with warm serum free basal EC medium supplemented with 1% BSA. Cells were then incubated in 300 μL of fresh basal EC medium supplemented with 1% BSA for 30 minutes at 37° C. to allow degradation of extracellular ATP released due to mechanical stimulation during washes. Endogenous ecto-nucleotidases were inhibited by incubating EC monolayers with 300 μM ARL 67156 (Tocris) for 30 minutes at 37° C. Cells were then stimulated with recombinant human TNFα (R&D Systems). For dose response experiments, ECs were incubated with 0.1, 1, 5, 10, 50, or 100 ng/mL recombinant TNFα for 30 minutes at 37° C. […] The role of caspase activation was assessed by inhibition with the pan-caspase blocker Q-VD-OPh (100 μM; Sigma). […] Using a FluoStar Omega luminometer, 50 μL of luciferin:luciferase reagent (ATP bioluminescence assay kit HSII; Roche) was injected into each well and luminescence was recorded following a 5s orbital mix. ATP concentration in each sample was calculated from a standard curve for all experiments. Data are presented as a % change in ATP release from baseline (i.e. unstimulated cells) and expressed as mean±SEM (n=5 independent experiments with triplicate measurements).

Panx1 = experiment: Western blot of Panx1 phosphorylation at Y198 in venous ECs; format: cell-based, human; conditions: HUVEC and HSaVECs; TNFα 10 ng/mL
Procedure: (§2) Following stimulation with TNFα (in vitro: 10 ng/mL; ex vivo: 50 ng/mL), confluent endothelial cell monolayers or isolated mesenteric venules were homogenized in ice cold Triton extraction buffer (50 mM Tris-HCL, 150 mM NaCl , 5 mM EDTA, 1% deoxycholate, 1% NP-40 and 1% Triton-X100 in phosphate buffered saline and pH adjusted to 7.4) containing protease and phosphatase inhibitors. Cell/Tissue lysates were incubated with rotation at 4° C. for 20 minutes to solubilize proteins, followed by centrifugation for 5 minutes at 13,000× g to pellet cell debris. Protein concentration was quantified using the BCA method. 15-20 μg of total protein was subjected to SDS gel electrophoresis using 4-12% Bis-Tris gels (Invitrogen) and transferred to nitrocellulose membranes for immunoblotting. Membranes were blocked for 1 hr at room temperature with LiCOR blocking solution, then incubated overnight at 4° C. with primary antibodies against pY416SFKs, (BD Biosciences; 1:1000) pY198Panx1 (Alpha Diagnostic Intl (ADI); 1:1000) and GAPDH (Sigma; 1:10,000) or an antibody against the intracellular loop of Panx1 (Panx1-IL) (ADI; 1:1000) (normalization controls). Membranes were then washed and incubated with LiCOR secondary antibodies (1:10,000) and visualized and quantitated using LiCOR Odyssey. To inhibit SFK activity, EC monolayers were incubated with the SFK inhibitor PP2 (Tocris; 10 μM). […] To show specificity for the phosphorylated form of SFKs and Panx1, cell lysates were incubated with alkaline phosphatase for 1 hour at 37° C. Western blot images have been cropped for presentation. Uncropped Western blots can be found in FIGS. 12-13. Data are expressed as mean±SEM (n=3 independent experiments).

HUVEC = experiment: In vitro ATP release assay (luciferin:luciferase), HUVEC; format: cell-based, human
Procedure: In vitro Human arterial and venous ECs were seeded in 24-well plates pre-coated with 0.2% gelatin and grown to confluency. On the day of experiment, the media was removed from each well and cells were carefully washed twice with warm serum free basal EC medium supplemented with 1% BSA. Cells were then incubated in 300 μL of fresh basal EC medium supplemented with 1% BSA for 30 minutes at 37° C. to allow degradation of extracellular ATP released due to mechanical stimulation during washes. Endogenous ecto-nucleotidases were inhibited by incubating EC monolayers with 300 μM ARL 67156 (Tocris) for 30 minutes at 37° C. Cells were then stimulated with recombinant human TNFα (R&D Systems). For dose response experiments, ECs were incubated with 0.1, 1, 5, 10, 50, or 100 ng/mL recombinant TNFα for 30 minutes at 37° C. For time-course experiments, ECs were stimulated with 10 ng/mL recombinant TNFα for different time points up to 1 hour. In experiments where pharmacological inhibitors were employed, ECs were incubated with antagonists in parallel with ARL 67156 for 30 minutes. To inhibit TNFR1, ECs were incubated with the peptide antagonist of the receptor WP9QY (10 μM; Anaspec). […] Cx hemichannels were inhibited with lanthanum (La^3+; 100 μM; Sigma) and Panx1 channels were blocked with carbenoxolone (CBX; 50 μM; Sigma) and the inhibitory peptide ^10panx1 (200 μM; Genscript). […] The role of caspase activation was assessed by inhibition with the pan-caspase blocker Q-VD-OPh (100 μM; Sigma). Following stimulation with TNFα or vehicle, 150 μL of the cell supernatant was collected and immediately placed into pre-chilled 1.5 mL Eppendorf tubes on ice. All samples were centrifuged at 10,000×g for 5 minutes and 50 μL of each sample was transferred to a white, opaque 96-well plate. Using a FluoStar Omega luminometer, 50 μL of luciferin:luciferase reagent (ATP bioluminescence assay kit HSII; Roche) was injected into each well and luminescence was recorded following a 5s orbital mix. ATP concentration in each sample was calculated from a standard curve for all experiments. Data are presented as a % change in ATP release from baseline (i.e. unstimulated cells) and expressed as mean±SEM (n=5 independent experiments with triplicate measurements).

Src Family Kinases (SFK) [1] = experiment: Western blot of SFK activation (pY416SFK) in venous ECs; format: cell-based, human; conditions: HUVEC and HSaVEC; acute (5 minute) TNFα
Procedure: as §2

HCoAEC = experiment: In vitro ATP release assay, HCoAEC; format: cell-based, human
Procedure: as §1

[2] = tested on: paired mesenteric arterioles; experiment: Ex vivo vascular perfusion ATP release assay, mesenteric arterioles; format: cell-based, mouse; conditions: TNFα 50 ng/mL
Procedure: (§3) For isolated blood vessel experiments, 2nd order venules or arterioles were dissected from the mouse mesentery circulation and cannulated on glass micropipettes to access the vessel lumen. […] Vessels were then perfused with MOPS PSS containing 300 μM ARL 67156 +/− pharmacological inhibitors and incubated for an additional 20 minutes prior to perfusion with MOPS PSS containing recombinant murine TNFα (R&D Systems). Aliquots of the lumenal perfusate were collected every 5 minutes for a 25-minute period and the ATP concentration was quantified by bioluminescence as described above. Data are expressed as mean±SEM (n=4 independent experiments).

[3] = tested on: isolated murine mesenteric venules; experiment: Ex vivo vascular perfusion ATP release assay, mesenteric venules; format: cell-based, mouse; conditions: lumenal perfusion
Procedure: as §3

Src Family Kinases (SFK) [4] = experiment: Western blot of SFK activation in isolated mesenteric venules; format: cell-based, mouse; conditions: mesenteric venules perfused with TNFα 50 ng/mL 30 minutes
Procedure: Following stimulation with TNFα (in vitro: 10 ng/mL; ex vivo: 50 ng/mL), confluent endothelial cell monolayers or isolated mesenteric venules were homogenized in ice cold Triton extraction buffer (50 mM Tris-HCL, 150 mM NaCl , 5 mM EDTA, 1% deoxycholate, 1% NP-40 and 1% Triton-X100 in phosphate buffered saline and pH adjusted to 7.4) containing protease and phosphatase inhibitors. Cell/Tissue lysates were incubated with rotation at 4° C. for 20 minutes to solubilize proteins, followed by centrifugation for 5 minutes at 13,000× g to pellet cell debris. Protein concentration was quantified using the BCA method. 15-20 μg of total protein was subjected to SDS gel electrophoresis using 4-12% Bis-Tris gels (Invitrogen) and transferred to nitrocellulose membranes for immunoblotting. Membranes were blocked for 1 hr at room temperature with LiCOR blocking solution, then incubated overnight at 4° C. with primary antibodies against pY416SFKs, (BD Biosciences; 1:1000) pY198Panx1 (Alpha Diagnostic Intl (ADI); 1:1000) and GAPDH (Sigma; 1:10,000) or an antibody against the intracellular loop of Panx1 (Panx1-IL) (ADI; 1:1000) (normalization controls). Membranes were then washed and incubated with LiCOR secondary antibodies (1:10,000) and visualized and quantitated using LiCOR Odyssey. […] Data are expressed as mean±SEM (n=3 independent experiments).

T1 sequence (Q96RD7 whole entry): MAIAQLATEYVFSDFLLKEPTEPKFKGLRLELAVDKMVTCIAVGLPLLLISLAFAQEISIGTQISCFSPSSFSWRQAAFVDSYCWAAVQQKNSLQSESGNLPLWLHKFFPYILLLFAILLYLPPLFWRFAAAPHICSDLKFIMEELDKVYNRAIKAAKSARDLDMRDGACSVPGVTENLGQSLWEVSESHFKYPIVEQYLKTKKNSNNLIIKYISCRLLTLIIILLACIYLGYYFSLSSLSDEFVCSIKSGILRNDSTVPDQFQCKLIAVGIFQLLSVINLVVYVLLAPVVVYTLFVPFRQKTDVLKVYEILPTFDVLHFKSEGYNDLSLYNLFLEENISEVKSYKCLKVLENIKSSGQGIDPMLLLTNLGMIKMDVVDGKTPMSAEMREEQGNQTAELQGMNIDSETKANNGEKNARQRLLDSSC

## TNFα
Panx1 channels in HUVEC
  intracellular YO-PRO-1 dye accumulation: significant increase
HAoEC
  ATP release on cytokine stimulation: failed to release ATP
Panx1
  Panx1 phosphorylation at Y198: increased phosphorylation at Y198
HUVEC; EC ATP release, range tested 0.1-100 ng/mL
  TNFα dose with significant ATP release response: ≥ 10 ng/mL
HUVEC; HUVEC monolayers
  ATP release on cytokine stimulation: significant increase
HUVEC; cultured venous ECs
  TNFα concentration giving maximal accumulation of extracellular ATP: 10 ng/mL
HUVEC; cultured venous ECs, 10 ng/mL TNFα
  time to maximal accumulation of extracellular ATP: approximately 10 minutes
Src Family Kinases (SFK) [1]
  Y416 phosphorylation of SFK: significant increase
HCoAEC
  ATP release on cytokine stimulation: failed to release ATP
[2]
  ATP accumulation in the perfusate on cytokine perfusion: absent
[3]
  ATP accumulation in the perfusate on cytokine perfusion: time- and dose-dependent increase
Src Family Kinases (SFK) [4]
  SFK activation: increasing SFK activation
